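Values below derive from 48-hour exposures of cells grown in 96-well plates, with endpoints linearly interpolated between the two concentrations bracketing the appropriate inhibition level. TGI marks complete inhibition of growth.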
What was measured:
Assay in all cases: inhibition of tumour cell growth, NCI panel, 48 h
M14 melanoma = system: M14 melanoma
NCI-H23 lung = system: NCI-H23 lung
OVCAR-5 ovarian = system: OVCAR-5 ovarian
MOLT-4 leukemia = system: MOLT-4 leukemia
CCRF-CEM leukemia = system: CCRF-CEM leukemia
SF-268 CNS = system: SF-268 CNS
NCI-H460 lung = system: NCI-H460 lung
HOP-62 NSCLC = system: HOP-62 NSCLC
UACC-257 melanoma = system: UACC-257 melanoma
SW-620 colon = system: SW-620 colon
LXFL 529 NSCLC = system: LXFL 529 NSCLC
MALME-3M melanoma = system: MALME-3M melanoma
A498 renal = system: A498 renal
HOP-92 NSCLC = system: HOP-92 NSCLC
A549 NSCLC = system: A549 NSCLC
COLO 205 colon = system: COLO 205 colon
SK-MEL-2 melanoma = system: SK-MEL-2 melanoma
DMS 273 small cell lung = system: DMS 273 small cell lung
HL-60(TB) leukemia = system: HL-60(TB) leukemia
XF 498 CNS = system: XF 498 CNS
OVCAR-3 ovarian = system: OVCAR-3 ovarian
LOX IMVI melanoma = system: LOX IMVI melanoma
SNB-19 CNS = system: SNB-19 CNS
ACHN renal = system: ACHN renal
SF-539 CNS = system: SF-539 CNS
SNB-75 CNS = system: SNB-75 CNS
SK-MEL-28 melanoma = system: SK-MEL-28 melanoma
RPMI-8226 leukemia = system: RPMI-8226 leukemia
M19-MEL melanoma = system: M19-MEL melanoma
HT29 colon = system: HT29 colon
SK-MEL-5 melanoma = system: SK-MEL-5 melanoma
KM12 colon = system: KM12 colon
U251 CNS = system: U251 CNS
NCI-H522 lung = system: NCI-H522 lung
HCT-15 colon = system: HCT-15 colon
SR leukemia = system: SR leukemia
SNB-78 CNS = system: SNB-78 CNS
UACC-62 melanoma = system: UACC-62 melanoma
OVCAR-4 ovarian = system: OVCAR-4 ovarian
SN12C renal = system: SN12C renal
IGROV1 ovarian = system: IGROV1 ovarian
UO-31 renal = system: UO-31 renal
SK-OV-3 ovarian = system: SK-OV-3 ovarian
HCC-2998 colon = system: HCC-2998 colon
DLD-1 colon = system: DLD-1 colon
TK-10 renal = system: TK-10 renal
NCI-H226 lung = system: NCI-H226 lung
CAKI-1 renal = system: CAKI-1 renal
KM20L2 colon = system: KM20L2 colon
EKVX NSCLC = system: EKVX NSCLC
SF-295 CNS = system: SF-295 CNS
786-0 renal = system: 786-0 renal
HCT-116 colon = system: HCT-116 colon
OVCAR-8 ovarian = system: OVCAR-8 ovarian
RXF 393 renal = system: RXF 393 renal
DMS 114 small cell lung = system: DMS 114 small cell lung

**Q.** Which TGI (M14 melanoma) does the source give for `CN=C(NC#N)N(Cc1ccccc1)Cc1ccccc1` here?
**A.** > 100 µM

**Q.** What about the TGI (NCI-H23 lung) of the same compound?
**A.** > 100 µM

**Q.** What about the TGI (OVCAR-5 ovarian) of the same compound?
**A.** > 100 µM

**Q.** What about the TGI (MOLT-4 leukemia) of the same compound?
**A.** > 100 µM

**Q.** And the TGI (CCRF-CEM leukemia)?
**A.** > 100 µM

**Q.** And the TGI (SF-268 CNS)?
**A.** > 100 µM

**Q.** And the TGI (NCI-H460 lung)?
**A.** > 100 µM

**Q.** And the TGI (HOP-62 NSCLC)?
**A.** > 100 µM

**Q.** What about the TGI (UACC-257 melanoma) of the same compound?
**A.** > 100 µM

**Q.** What about the TGI (SW-620 colon) of the same compound?
**A.** > 100 µM

**Q.** What about the TGI (LXFL 529 NSCLC) of the same compound?
**A.** > 100 µM

**Q.** What about the TGI (MALME-3M melanoma) of the same compound?
**A.** > 100 µM

**Q.** What about the TGI (A498 renal) of the same compound?
**A.** > 100 µM

**Q.** And the TGI (HOP-92 NSCLC)?
**A.** > 100 µM

**Q.** And the TGI (A549 NSCLC)?
**A.** > 100 µM

**Q.** And the TGI (COLO 205 colon)?
**A.** > 100 µM

**Q.** And the TGI (SK-MEL-2 melanoma)?
**A.** > 100 µM

**Q.** And the TGI (DMS 273 small cell lung)?
**A.** > 100 µM

**Q.** What about the TGI (HL-60(TB) leukemia) of the same compound?
**A.** > 100 µM

**Q.** And the TGI (XF 498 CNS)?
**A.** > 100 µM

**Q.** And the TGI (OVCAR-3 ovarian)?
**A.** > 100 µM

**Q.** And the TGI (LOX IMVI melanoma)?
**A.** > 100 µM

**Q.** What about the TGI (SNB-19 CNS) of the same compound?
**A.** > 100 µM

**Q.** And the TGI (ACHN renal)?
**A.** > 100 µM

**Q.** And the TGI (SF-539 CNS)?
**A.** > 100 µM

**Q.** What about the TGI (SNB-75 CNS) of the same compound?
**A.** > 100 µM

**Q.** And the TGI (SK-MEL-28 melanoma)?
**A.** > 100 µM

**Q.** What about the TGI (RPMI-8226 leukemia) of the same compound?
**A.** > 100 µM

**Q.** And the TGI (M19-MEL melanoma)?
**A.** > 100 µM

**Q.** And the TGI (HT29 colon)?
**A.** > 100 µM

**Q.** And the TGI (SK-MEL-5 melanoma)?
**A.** > 100 µM

**Q.** What about the TGI (KM12 colon) of the same compound?
**A.** > 100 µM

**Q.** And the TGI (U251 CNS)?
**A.** > 100 µM

**Q.** And the TGI (NCI-H522 lung)?
**A.** > 100 µM

**Q.** What about the TGI (HCT-15 colon) of the same compound?
**A.** > 100 µM

**Q.** And the TGI (SR leukemia)?
**A.** > 100 µM

**Q.** What about the TGI (SNB-78 CNS) of the same compound?
**A.** > 100 µM

**Q.** And the TGI (UACC-62 melanoma)?
**A.** > 100 µM

**Q.** And the TGI (OVCAR-4 ovarian)?
**A.** > 100 µM

**Q.** What about the TGI (SN12C renal) of the same compound?
**A.** > 100 µM

**Q.** And the TGI (IGROV1 ovarian)?
**A.** > 100 µM

**Q.** What about the TGI (UO-31 renal) of the same compound?
**A.** > 100 µM

**Q.** What about the TGI (SK-OV-3 ovarian) of the same compound?
**A.** > 100 µM

**Q.** And the TGI (HCC-2998 colon)?
**A.** > 100 µM

**Q.** And the TGI (DLD-1 colon)?
**A.** > 100 µM

**Q.** What about the TGI (TK-10 renal) of the same compound?
**A.** > 100 µM

**Q.** And the TGI (NCI-H226 lung)?
**A.** > 100 µM

**Q.** What about the TGI (CAKI-1 renal) of the same compound?
**A.** > 100 µM

**Q.** What about the TGI (KM20L2 colon) of the same compound?
**A.** > 100 µM

**Q.** What about the TGI (EKVX NSCLC) of the same compound?
**A.** > 100 µM

**Q.** And the TGI (SF-295 CNS)?
**A.** > 100 µM

**Q.** And the TGI (786-0 renal)?
**A.** > 100 µM

**Q.** And the TGI (HCT-116 colon)?
**A.** > 100 µM

**Q.** What about the TGI (OVCAR-8 ovarian) of the same compound?
**A.** > 100 µM

**Q.** Which TGI (NCI-H23 lung) does the source give for `COC(=O)c1nc(-c2ccc(Cl)c(Cl)c2)nc2ccc(Cl)cc12` here?
**A.** > 100 µM

**Q.** And the TGI (OVCAR-5 ovarian)?
**A.** > 100 µM

**Q.** What about the TGI (SF-268 CNS) of the same compound?
**A.** > 100 µM

**Q.** What about the TGI (NCI-H460 lung) of the same compound?
**A.** > 100 µM

**Q.** What about the TGI (UACC-257 melanoma) of the same compound?
**A.** > 100 µM

**Q.** And the TGI (SW-620 colon)?
**A.** > 100 µM

**Q.** What about the TGI (LXFL 529 NSCLC) of the same compound?
**A.** > 100 µM

**Q.** What about the TGI (MALME-3M melanoma) of the same compound?
**A.** > 100 µM

**Q.** And the TGI (A498 renal)?
**A.** > 100 µM

**Q.** What about the TGI (HOP-92 NSCLC) of the same compound?
**A.** 37.7 µM

**Q.** What about the TGI (A549 NSCLC) of the same compound?
**A.** > 100 µM

**Q.** What about the TGI (COLO 205 colon) of the same compound?
**A.** > 100 µM

**Q.** What about the TGI (SK-MEL-2 melanoma) of the same compound?
**A.** > 100 µM

**Q.** What about the TGI (DMS 273 small cell lung) of the same compound?
**A.** > 100 µM

**Q.** What about the TGI (HL-60(TB) leukemia) of the same compound?
**A.** > 100 µM

**Q.** What about the TGI (SNB-19 CNS) of the same compound?
**A.** > 100 µM

**Q.** What about the TGI (ACHN renal) of the same compound?
**A.** > 100 µM

**Q.** And the TGI (SF-539 CNS)?
**A.** 84.1 µM

**Q.** And the TGI (SNB-75 CNS)?
**A.** 51.3 µM

**Q.** And the TGI (SK-MEL-28 melanoma)?
**A.** > 100 µM

**Q.** What about the TGI (RPMI-8226 leukemia) of the same compound?
**A.** > 100 µM

**Q.** And the TGI (M19-MEL melanoma)?
**A.** > 100 µM

**Q.** And the TGI (HT29 colon)?
**A.** > 100 µM

**Q.** What about the TGI (SK-MEL-5 melanoma) of the same compound?
**A.** > 100 µM

**Q.** And the TGI (KM12 colon)?
**A.** > 100 µM

**Q.** What about the TGI (U251 CNS) of the same compound?
**A.** > 100 µM

**Q.** What about the TGI (SR leukemia) of the same compound?
**A.** > 100 µM

**Q.** And the TGI (SNB-78 CNS)?
**A.** > 100 µM

**Q.** And the TGI (UACC-62 melanoma)?
**A.** > 100 µM

**Q.** And the TGI (SN12C renal)?
**A.** > 100 µM

**Q.** What about the TGI (IGROV1 ovarian) of the same compound?
**A.** > 100 µM

**Q.** And the TGI (UO-31 renal)?
**A.** > 100 µM

**Q.** What about the TGI (SK-OV-3 ovarian) of the same compound?
**A.** 43.1 µM

**Q.** What about the TGI (HCC-2998 colon) of the same compound?
**A.** > 100 µM

**Q.** And the TGI (DLD-1 colon)?
**A.** > 100 µM

**Q.** What about the TGI (TK-10 renal) of the same compound?
**A.** > 100 µM

**Q.** What about the TGI (RXF 393 renal) of the same compound?
**A.** 63.5 µM

**Q.** And the TGI (DMS 114 small cell lung)?
**A.** > 100 µM

**Q.** And the TGI (KM20L2 colon)?
**A.** > 100 µM

**Q.** And the TGI (EKVX NSCLC)?
**A.** > 100 µM

**Q.** What about the TGI (SF-295 CNS) of the same compound?
**A.** > 100 µM

**Q.** And the TGI (786-0 renal)?
**A.** 73 µM

**Q.** What about the TGI (HCT-116 colon) of the same compound?
**A.** > 100 µM

**Q.** And the TGI (OVCAR-8 ovarian)?
**A.** > 100 µM

— PubChem BioAssay (NCI)
